In patent US6521764B1, “Process for the preparation of fumagillin” (Sanofi-Synthelabo, priority 1999, dated 2003):

Tests used:
[1] = at -80 °C; cited from earlier work
[2] = 2-week stability study of Fumagillin samples obtained by various methods, Fumagillin content by HPLC before and after stressing; assay type: physicochemical; details: for HPLC Assay, After 2 weeks at 40° C., ambient humidity / HPLC Assay, Initial: 3 equivalent acetic acid; for HPLC Assay, Initial: before stressing
Procedure: We carried out a 2-week stability study at 40 OC , ambient humidity, of selected samples obtained by various methods. The Fumagillin content of the samples was measured by HPLC before and after the stressing.

[3] = sample liberated from methanol, crude product
[4] = sample liberated from methanol-dichloromethane 5:1, crude product
[5] = sample liberated from toluene, crude product
[6] = sample liberated in aqueous medium, followed by extraction with dichloromethane, concentration and crystallization in methanol

## CO[C@@H]1[C@H](OC(=O)/C=C/C=C/C=C/C=C/C(=O)O)CC[C@]2(CO2)[C@H]1[C@@]1(C)O[C@@H]1CC=C(C)C [Fumagillin]
[1]
  Stability on storage: stable
[2]; [3]
  HPLC Assay, After 2 weeks at 40° C., ambient humidity: 85.1%
  HPLC Assay, Initial: 97.6%
[2]; [4]
  HPLC Assay, After 2 weeks at 40° C., ambient humidity: 49.9%
  HPLC Assay, Initial: 96.3%
[2]; [5]
  HPLC Assay, After 2 weeks at 40° C., ambient humidity: 61.0%
  HPLC Assay, Initial: 92.6%
[2]; [6]
  HPLC Assay, After 2 weeks at 40° C., ambient humidity: 54.9%
  HPLC Assay, Initial: 96.9%
[2]; samples obtained by the alcoholic method, 2 weeks at 40 °C, ambient humidity
  Stability compared with samples obtained by other methods: considerably more stable
